System: Male C57BL/6 mice
Test: oral glucose tolerance test in mice
Assay type: in vivo
Details: oral glucose 3 g/kg at 0 min, versus vehicle
Experimental: All animal experiments described below and listed in Table 1 were performed in accordance to Austrian law and the principles of good laboratory animal care. Data shown in Table 1 are obtained using commercially available male mice purchased, e.g. from the breeding facilities of Charles River Lab. (USA). Male C57BL/6 mice were used at the age of 7-30 weeks and had free access to a standard laboratory chow diet (kg/kg: <10% crude fat) and water except for defined fasting periods before experimentation. They were maintained at room temperature and a 12 h/12 h light-dark cycle.
The antidiabetic activities of the products listed in Table 1 were evaluated in oral glucose tolerance tests in mice, in analogy to the procedure known to the general physician. Mice were fasted for 8-12 hours prior to oral glucose tolerance testing. For biological testing, the products listed in Table 1 were dissolved or suspended in 0.5% carboxymethylcellulose containing 1-2% acetic acid. A control group receiving no test product was examined in parallel in each test run. The control group received the same amount of a 0.5% carboxymethylcellulose solution containing 1-2% acetic acid (vehicle). Administration of products listed in Table 1 or vehicle at T=−45 min was followed after 45 min by oral administration via gavage of a glucose solution (3 g/kg) at T=0 min. Blood was collected via puncture of the tip of the tail immediately before administration of products listed in Table 1 or vehicle, immediately before administration of glucose, and at T=30 min and/or T=90 and/or T=150 as the case may be. Blood glucose was determined using portable glucometers as commonly used in human diabetes.
The increment in blood glucose at T=min over levels measured at T=0 min was calculated for each animal. Mean values of the increment for treatment group and vehicle group were compared (typical group size n=6-10 mice). Percent reduction induced by products listed in Table 1 versus vehicle was the readout parameter for glucose-lowering activity. As listed in Table 1, an effect of 1 means a reduction of more than 15% of incremental blood glucose at the given time point T=min versus vehicle group.
Antidiabetic effects of products are listed in Table 1 as evaluated in a glucose tolerance test in mice.

[1] = product dose 90 mg/kg per os at -45 min, glucose measurement at 30 min
[2] = product dose 45 mg/kg per os at -45 min, glucose measurement at 30 min

SMILES | Antidiabetic activity [1] | Antidiabetic activity [2] | further results
CC1(c2ccccc2)CCC2(C)CC(=O)CCN2C1 (stereo not shown) [Product 3a, 7,9a-dimethyl-7-phenyloctahydro-2H-quinolizin-2-one] | 1 (an effect of 1 means a reduction of more than 15% of incremental blood glucose at the given time point T=min versus vehicle group) |  | 
CC1(c2ccc(F)cc2)CCC2(C)CC(=O)CCN2C1 (stereo not shown) [Product 3b, 7-(4-fluorophenyl)-7,9a-dimethyloctahydro-2H-quinolizin-2-one] | 1 (an effect of 1 means a reduction of more than 15% of incremental blood glucose at the given time point T=min versus vehicle group) |  | 
CC1(c2ccccc2)CCC2(C)CC3(CCCO3)CCN2C1 (stereo not shown) [Product 5a, 7′,9a′-dimethyl-7′-phenyldecahydro-3H-spiro[furan-2,2′-quinolizine]] |  |  | Antidiabetic activity (product dose 22.5 mg/kg per os at -45 min, glucose measurement at 30 min): 1 (an effect of 1 means a reduction of more than 15% of incremental blood glucose at the given time point T=min versus vehicle group); Antidiabetic activity (product dose 90 mg/kg per os at -45 min, glucose measurement at 90 min): 1 (an effect of 1 means a reduction of more than 15% of incremental blood glucose at the given time point T=min versus vehicle group); Antidiabetic activity (product dose 90 mg/kg per os at -45 min, glucose measurement at 150 min): 1 (an effect of 1 means a reduction of more than 15% of incremental blood glucose at the given time point T=min versus vehicle group)
CC1(c2ccc(F)cc2)CCC2(C)CC3(CCCO3)CCN2C1 (stereo not shown) [Product 5b, 7′-(4-fluorophenyl)-7′,9a′-dimethyldecahydro-3H-spiro[furan-2,2′-quinolizine]] |  | 1 (an effect of 1 means a reduction of more than 15% of incremental blood glucose at the given time point T=min versus vehicle group) | 
CC1(c2ccc(F)cc2)CCC2(C)CC3(CCC(=O)O3)CCN2C1 (stereo not shown) [Product 6b, 7′-(4-fluorophenyl)-7′,9a′-dimethyldecahydro-5H-spiro[furan-2,2′-quinolizine]-5-one] |  | 1 (an effect of 1 means a reduction of more than 15% of incremental blood glucose at the given time point T=min versus vehicle group) | 

Source: US20110160238A1, “OCTAHYDROQUINOLIZINES FOR ANTIDIABETIC TREATMENT” (55PHARMA DRUG DISCOVERY & DEVELOPMENT AG, priority 2008, published 2011)
